Reference: patent US20210038559A1, “CANNABINOIDS AND DERIVATIVES FOR PROMOTING IMMUNOGENICITY OF TUMOR AND INFECTED CELLS” (priority 2018, published 2021)
Counter-ions that a name gives are not always drawn. Like-named read-outs stand apart in the source and are kept apart here.

Experiments:
[1] = tested on: MHC-I expression on COLO 205 cells; assay: Phytocannabinoid MHC-I induction on COLO 205 cells, 0-100 μM, 48 hours; settings: for MHC-I expression induction: COLO 205, endogenous cannabinoids; for Fold Induction: MHC-I expression on COLO 205 cells, relative to control cells treated only with buffer
Procedure: FIG. 4. Cell surface MHC class I expression was measured by flow cytometry (MFI).
Phytocannabinoids were tested for MHC-I-inducing activity on COLO 205 cells. Each cannabinoid was tested at a concentration range of 0-100 μM. […] “ND” indicates not determined.

[2] = tested on: MHC-I expression by COLO 205 cells; assay: cells; format: cell-based, human; settings: for fold induction at 35 µM: Homo sapiens, COLO 205, 48 h, read-out: Induction Fold
Procedure: A panel of synthetic cannabinoids (Cayman Chemical, #9002891) was tested for MHC class I-inducing capability in COLO 205 cells as described above. COLO 205 cells were treated with the compounds at a concentration of 35 μM and evaluated for cell surface MHC class I expression after 48 hours. Cells were harvested, stained with MHC-I mAb W6/32 (Thermo Fisher). MHC-I expression was determined by flow cytometry.

[3] = tested on: MHC class I expression on COLO 205 cells; assay: MHC class I expression on COLO 205 cells, 24 hours, flow cytometry (W6/32)
Procedure: FIG. 2A-2F. […] Cells were treated for 24 hours and cell surface MHC class I expression was measured by flow cytometry.
Cannabigerol was also tested for its capacity to induce MHC class I expression in a human colorectal carcinoma cell line, COLO 205. The cells were treated with either 25 μM or 50 μM cannabigerol for 24 hours. Fluorophor (Alexa Fluor 488)-conjugated W6/32 antibody (Thermo Fisher) was used in a flow cytometry assay to quantitate MHC class I expression. […] Cannabigerol is only one of many cannabinoid-like molecules with potential biopharmaceutical activity. […] COLO 205 cells were treated with up to 40 μM of the cannabinoids 1-5 presented in Tables 1 and 2 and evaluated for cell surface MHC class I expression as described above for cannabigerol.

[4] = MHC-I expression, COLO 205 cells, compounds at 35 μM, 48 hours, flow cytometry (W6/32)
[5] = induction of MHC-I expression on COLO 205 cells, 0-100 μM, 48 hours

## CCCCC/C=C\C/C=C\C/C=C\C/C=C\CCCC(=O)NCCO [AEA, N-arachidonoylethanolamine, reference compound]
[1]
  MHC-I expression induction: do not induce MHC-I expression

## CCCCC/C=C\C/C=C\C/C=C\C/C=C\CCCC(=O)OC(CO)CO [Example 2-AG, 2-Arachidonoylglycerol, reference compound]
[1]
  MHC-I expression induction: do not induce MHC-I expression

## CCCCCCC(C)(C)c1ccc([C@H]2C[C@@H](O)CC[C@@H]2CCCO)c(O)c1 [Example 365, 2-((1S,2S,5S)-5-hydroxy-2-(3-hydroxypropyl)cyclohexyl)-5-(2-methyloctan-2-yl)phenol]
[2]; [4]
  fold induction at 35 µM: 0.89

## CCCCCn1cc(-c2nc(CN(CC)CC)cs2)c2ccccc21 [Example 366]
[2]; [4]
  Induction Fold: 0.89 Fold

## CC1=CC[C@@H]2[C@@H](C1)c1c(O)cc(C(C)(C)c3ccccc3)cc1OC2(C)C [Example 367, 6aR,7,10,10aR-tetrahydro-6,6,9-trimethyl-3-(1-methyl-1-phenylethyl)-6H-dibenzo[b,d]pyran-1-ol]
[2]; [4]
  Induction Fold: 0.87 Fold

## CN1CCCCC1Cn1cc(C(=O)C2C(C)(C)C2(C)C)c2ccccc21 (stereo not drawn) [Example 368, [1-[(1-methyl-2-piperidinyl)methyl]-1H-indol-3-yl](2,2,3,3-tetramethylcyclopropyl)-methanone]
[2]
  fold induction at 35 µM: 0.85

## CCCCCn1cc(-c2nc(CN(CCOC)C(C)C)cs2)c2ccccc21 [Example 369, N-(2-methoxyethyl)-N-(1-methylethyl)-2-(1-pentyl-1H-indol-3-yl)-4-thiazolemethanamine, monohydrochloride]
[2]; [4]
  fold induction at 35 µM: 0.85

## CCCCn1cc(C(=O)c2ccc(OC)c3ccccc23)c2ccccc21 [Example 370, (1-butyl-1H-indol-3-yl)(4-methoxy-1-naphthalenyl)-methanone]
[2]; [4]
  fold induction at 35 µM: 0.82

## CCCCCCC(C)(C)c1ccc([C@H]2CCC[C@@H](O)C2)c(O)c1 [Example 371, 2[(1S,3R)-3-hydroxycyclohexyl]-5-(2-methyloctan-2-yl)phenol]
[2]; [4]
  fold induction at 35 µM: 0.78

## CCCCCn1c(C)c(C(=O)c2ccc(OC)c3ccccc23)c2ccccc21 [Example 372, (4-methoxy-1-naphthalenyl)(2-methyl-1-pentyl-1H-indol-3-yl)-methanone]
[2]; [4]
  fold induction at 35 µM: 0.6

## O=C(Nc1cccc2ccccc12)c1cn(CCCCCF)c2ccncc12 [Example 373, 1-(5-fluoropentyl)-N-(naphthalen-1-yl)-1H-pyrrolo[3,2-c]pyridine-3-carboxamide]
[2]; [4]
  fold induction at 35 µM: 0.49

## CS(=O)(=O)O.Cc1c(C(=O)c2cccc3ccccc23)c2cccc3c2n1C(CN1CCOCC1)CO3 (stereo not drawn) [Example 376, [2,3-dihydro-5-methyl-3-(4-morpholinylmethyl)pyrrolo[1,2,3-de]-1,4-benzoxazin-6-yl]-1-naphthalenyl-methanone, methanesulfonate]
[2]
  Induction Fold: 0.32 Fold

## C=C(C)[C@@H]1CCC(C)=C[C@H]1C1=C(O)C(=O)C(CCCCC)=CC1=O [Example 377, 3-hydroxy-2-[(1R,6R)-3-methyl-6-(1-methylethenyl)-2-cyclohexen-1-yl]-5-pentyl-2,5-cyclohexadiene-1,4-dione]
[2]; [4]
  fold induction at 35 µM: 0.3

## CCCCCCC(C)(C)c1cc(O)c2c(c1)OC(C)(C)[C@@H]1CC=C(CO)C[C@@H]21 [Example 378, 3-(1,1′-dimethylheptyl)-6aR,7,10,10aR-tetrahydro-1-hydroxy-6,6-dimethyl-6H-dibenzo[b,d]pyran-9-methanol]
[2]; [4]
  fold induction at 35 µM: 0.21

## CS(=O)(=O)O.Cc1c(C(=O)c2cccc3ccccc23)c2cccc3c2n1[C@H](CN1CCOCC1)CO3 [Example 379, [(3R)-2,3-dihydro-5-methyl-3-(4-morpholinylmethyl)pyrrolo[1,2,3-de]-1,4-benzoxazin-6-yl]-1-naphthalenyl-methanone, methanesulfonate]
[2]
  Induction Fold: 0.21 Fold

## CCCc1cc(O)c2c(c1)OC(C)(CCC=C(C)C)C=C2 (stereo not drawn) [Example 381, 2-methyl-2-(4-methylpent-3-enyl)-7-propylchromen-5-ol]
[1]; Homo sapiens, COLO 205, 48 h
  EC50: 32 µM
[1]; 0-100 μM, 48 hours
  Fold Induction: 3.3 Fold

## CCCCCc1cc2c3c(c1)OC(C)(C)C1CCC(C)(CC31)O2 (stereo not drawn) [Example 382, (6aα,9β,10aα)-6a,7,8,9,10,10a-hexahydro-6,6,9-trimethyl-3-pentyl-1,9-epoxy-6H-dibenzo[b,d]pyran]
[1]; 0-100 μM, 48 hours
  Fold Induction: 1.3 Fold

## CCCCCc1cc(O)c2c(c1)OC(C)(C)[C@@H]1CC=C(C)C[C@@H]21 [Example 383, 6aR,7,10,10aR-tetrahydro-6,6,9-trimethyl-3-pentyl-6H-dibenzo[b,d]pyran-1-ol]
[1]; 0-100 μM, 48 hours
  Fold Induction: 4.1 Fold
[1]; [5]
  EC50: 27 µM

## CCCCCc1cc(O)c2c(c1)OC(C)(C)[C@@H]1CCC(C)=C[C@@H]21 [Example 384, 6aR,7,8,10aR-tetrahydro-6,6,9-trimethyl-3-pentyl-6H-dibenzo[b,d]pyran-1-ol]
[1]; 0-100 μM, 48 hours
  Fold Induction: 6.1 Fold
[1]; [5]
  EC50: 30 µM

## CCCc1cc(O)c2c(c1)OC(C)(C)c1ccc(C)cc1-2 [Example 385, 6,6,9-trimethyl-3-propyl-6H-dibenzo[b,d]pyran-1-ol]
[1]; Homo sapiens, COLO 205, 48 h
  EC50: 20 µM
[1]; 0-100 μM, 48 hours
  Fold Induction: 3.9 Fold

## C=C(C)[C@@H]1CCC(C)=C[C@H]1c1c(O)cc(CCC)cc1O [Example 386, 2-[(1R,6R)-3-methyl-6-(1-methylethenyl)-2-cyclohexen-1-yl]-5-propyl-1,3-benzenediol]
[1]; Homo sapiens, COLO 205, 48 h
  EC50: 19 µM
[1]; 0-100 μM, 48 hours
  Fold Induction: 5.5 Fold

## CCCCCc1cc(OC)c2c(c1)OC(C)(C)c1ccc(C)cc1-2 [Example 387, 1-methoxy-6,6,9-trimethyl-3-pentyl-6H-dibenzo[b,d]pyran]
[1]; Homo sapiens, COLO 205, 48 h
  EC50: 30 µM
[1]; 0-100 μM, 48 hours
  Fold Induction: 2.3 Fold

## CC(C)=CCC/C(C)=C/Cc1c(O)cc(C)cc1O [Example 388, 2-[(2E)-3,7-dimethyl-2,6-octadien-1-yl]-5-methyl-1,3-benzenediol]
[1]; Homo sapiens, COLO 205, 48 h
  EC50: 36 µM
[1]; 0-100 μM, 48 hours
  Fold Induction: 2.7 Fold

## CC(C)=CCC/C(C)=C/Cc1c(O)cc(C)c(C(=O)O)c1O [Example 389, 3-[(2E)-3,7-dimethyl-2,6-octadien-1-yl]-2,4-dihydroxy-6-methyl-benzoic acid]
[1]; 0-100 μM, 48 hours
  Fold Induction: 2.6 Fold

## CCCCCc1cc(O)c2c(c1)OC1(C)CCC3C1C2C3(C)C [Example 390, (1aS,1a^1R,3aR,8bR)-1,1,3a-trimethyl-6-pentyl-1a,1a^1,2,3,3a,8b-hexahydro-1H-4-oxabenzo[f]cyclobuta[cd]inden-8-ol]
[1]; Homo sapiens, COLO 205, 48 h
  EC50: 20 µM
[1]; 0-100 μM, 48 hours
  Fold Induction: 4.2 Fold

## C=C(C)[C@@H]1CCC(C)=C[C@H]1c1c(O)cc(CCCCC)cc1O [cannabidiol (CBD)]
[1]; read-out: EC50 of MHC-I induction, COLO 205, 48 hours
  EC50: 10 µM

## (1-butyl-6-methoxy-1H-indol-3-yl)-1-naphthalenyl-methanone [Example 107]
[2]
  Induction Fold: 2.39 Fold

## (1-ethyl-1H-indol-3-yl)-1-naphthalenyl-methanone [Example 272]
[2]
  Induction Fold: 1.53 Fold

## (1-heptyl-5-phenyl-1H-pyrrol-3-yl)-1-naphthalenyl-methanone [Example 212]
[2]
  Induction Fold: 1.83 Fold

## (1-hexyl-1H-indol-3-yl)-1-naphthalenyl-methanone [Example 140]
[2]
  Induction Fold: 2.19 Fold

## (1-hexyl-1H-pyrrol-3-yl)-1-naphthalenyl-methanone [Example 72]
[2]
  Induction Fold: 2.68 Fold

## (1-hexyl-5-phenyl-1H-pyrrol-3-yl)-1-naphthalenyl-methanone [Example 82]
[2]
  Induction Fold: 2.54 Fold

## (2-ethyl-1-pentyl-1H-indol-3-yl)-1-naphthalenyl-methanone [Example 154]
[2]
  Induction Fold: 2.11 Fold

## [1-(5-fluoropentyl)-6-nitro-1H-indol-3-yl]-1-naphthalenyl-methanone [Example 280]
[2]
  Induction Fold: 1.49 Fold

## [2-methyl-1-(1-methylhexyl)-1H-indol-3-yl]-1-naphthalenyl-methanone [Example 137]
[2]
  Induction Fold: 2.22 Fold

## [5-(2-chlorophenyl)-1-pentyl-1H-pyrrol-3-yl]-1-naphthalenyl-methanone [Example 63]
[2]
  Induction Fold: 2.77 Fold

## [5-(3-fluorophenyl)-1-pentyl-1H-pyrrol-3-yl]-1-naphthalenyl-methanone [Example 109]
[2]
  Induction Fold: 2.37 Fold

B1: Interferon-γ: a natural cytokine known to stimulate MHC class I expression in many mammalian cells (protein, UniProt P01579 24-161, looked up)
Interferon gamma: QDPYVKEAENLKKYFNAGHSDVADNGTLFLGILKNWKEESDRKIMQSQIVSFYFKLFKNFKDDQSIQKSVETIKEDMNVKFFNSNKKKRDDFEKLTNYSVTDLNVQRKAIHELIQVMAELSPAAKTGKRKRSQMLFRG
[3]; COLO 205, 0.004 ng/mL
  Fold Induction: 0.98
[3]; COLO 205, 0.040 ng/mL
  Fold Induction: 2.07
[3]; COLO 205, 1.000 ng/mL
  Fold Induction: 3.99
